Experimental data reported in patent US20220296595A1, “CDK INHIBITORS” (QILU REGOR THERAPEUTICS INC., priority 2019, published 2022).
Where two headings read alike, the source gives them in different places.

Experiments:
[1] = system: phosphorylation of Retinoblastoma Protein (pRb Ser807/811 or Ser780) in T47D cells; experiment: Inhibition of phosphorylation of retinoblastoma protein (pRb) in T47D cell (ELISA); assay type: cell-based, human
Procedure: T47D breast cancer cells from American Type Culture Collection (ATCC, HTB-133) were plated at 40,000 cells/well in 96-well plates, and were incubated in RPMI 1640 medium (Gibco, 31800105) with 10% Fetal Bovine Serum (FBS, Biowest, FB-1058). Cells were then allowed to adhere overnight at 37° C., 5% CO2. The following day, compounds were titrated in a 3-fold dilution scheme, and the highest compound concentration tested was […]. After 24 hours incubation with compounds, cells were lysed in ice-cold lysis buffer containing phosphatase inhibitor cocktail and 1 mM PMSF. Cell lysates (50 μL/well) were then transferred to ELISA plates (pRb Ser807/811 ELISA kit, Cell Signaling, 13152 or pRb Ser780 ELISA kit, Cell Signaling, 13016)). Plates were incubated overnight at 4° C., with constant slow speed shaking. After incubation, plates were washed following manufacturer's recommendations, and then 100 μL reconstituted detection antibody was added to each well and incubated for 1 hour at 37° C. After incubation, plates were washed, and then 100 μL reconstituted HRP-linked secondary antibody was added to each well and incubated for 30 mins at 37° C. After incubation, plates were washed. Then, 100 μL TMB substrate was added to each well and incubated for 10 min at 37° C. or 30 min at 25° C. Finally, 100 μL of STOP solution was added to each well and mixed gently for a few seconds. Plates were read on the Envision plate reader (PerkinElmer, 2104-0010) using the 96-well […] mode. IC50 values were calculated using 4 parameter sigmoidal dose-response model of Xlfit5/GraphPad Prism 5 software.

CDK4/CyclinD1 = target: T1, CDK4/CyclinD1 (Homo sapiens, UniProt P11802); experiment: Assay for inhibition of CDK4/CyclinD1 (Caliper microfluidic kinase assay); assay type: biochemical
T1 construct: purchased Thermofisher PR8064A
T1 sequence (P11802 whole entry): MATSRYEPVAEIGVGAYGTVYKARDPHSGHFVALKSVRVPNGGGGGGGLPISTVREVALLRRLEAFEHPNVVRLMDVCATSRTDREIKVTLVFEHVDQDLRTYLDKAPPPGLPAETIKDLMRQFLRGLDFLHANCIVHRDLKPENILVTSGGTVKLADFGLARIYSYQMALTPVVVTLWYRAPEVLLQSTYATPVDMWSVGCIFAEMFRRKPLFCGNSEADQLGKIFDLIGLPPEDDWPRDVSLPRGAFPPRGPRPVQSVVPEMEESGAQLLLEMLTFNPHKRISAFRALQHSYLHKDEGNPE
T1 sequence (P24385 whole entry partner): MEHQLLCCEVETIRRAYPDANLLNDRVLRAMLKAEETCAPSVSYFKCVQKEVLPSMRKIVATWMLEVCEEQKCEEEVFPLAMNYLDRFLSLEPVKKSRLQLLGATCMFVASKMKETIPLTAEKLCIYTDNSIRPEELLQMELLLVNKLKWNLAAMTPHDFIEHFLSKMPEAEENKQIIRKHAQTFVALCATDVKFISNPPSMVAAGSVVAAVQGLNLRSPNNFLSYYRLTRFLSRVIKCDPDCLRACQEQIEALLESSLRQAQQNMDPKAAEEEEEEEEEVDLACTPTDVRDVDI
Method in brief: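 Caliper microfluidic mobility-shift assay tracking phosphorylation of 1 μM FL-34 peptide by 1 nM CDK4/CyclinD1 with 200 μM ATP in HEPES pH 7.5 buffer with 10 mM MgCl2. Reaction ran 3 h at room temperature, was stopped with EDTA, and IC50 came from a 4-parameter sigmoidal fit.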

CDK2/CyclinE1 = target: T2, CDK2/CyclinE1 (Homo sapiens, UniProt P24941); experiment: Assay for inhibition of CDK2/CyclinE1 (Caliper microfluidic kinase assay); assay type: biochemical; conditions: read-out: CDK2 IC50
T2 construct: purchased SignalChem C29-18G
Method in brief: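 Caliper microfluidic mobility-shift assay: 5 nM CDK2/CyclinE1, 100 μM ATP, 5 μM FL-18 peptide (5-FAM-QSPKKG-NH2) in pH 7.5 HEPES buffer with MgCl2, DTT, BSA, Triton X-100. Incubated 3 hours at room temperature, EDTA-stopped; IC50 from 4-parameter sigmoidal fit.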

T47D breast cancer cells = experiment: Anti-proliferation assay in T47D cell (Cyquant, day 6); assay type: cell-based, human; conditions: Homo sapiens, T47D, anti-proliferation, T47D cells; read-out: T47D IC50
Method in brief: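 Cells were grown in RPMI 1640 with 10% FBS at 37 °C and dosed the day after plating at ten concentrations, 10 μM to 0.51 nM in 3-fold steps. CyQuant fluorescence (ex 485/em 535 nm) was read on day 6. IC50 was fitted from baseline-subtracted viability curves, with the baseline read after overnight culture.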

CDK6/CyclinD3 = target: T3, CDK6/CyclinD3 (Homo sapiens, UniProt Q00534); experiment: Assay for inhibition of CDK6/CyclinD3 (Caliper microfluidic kinase assay); assay type: biochemical
T3 construct: purchased Carna 04-107
T3 sequence (Q00534 whole entry): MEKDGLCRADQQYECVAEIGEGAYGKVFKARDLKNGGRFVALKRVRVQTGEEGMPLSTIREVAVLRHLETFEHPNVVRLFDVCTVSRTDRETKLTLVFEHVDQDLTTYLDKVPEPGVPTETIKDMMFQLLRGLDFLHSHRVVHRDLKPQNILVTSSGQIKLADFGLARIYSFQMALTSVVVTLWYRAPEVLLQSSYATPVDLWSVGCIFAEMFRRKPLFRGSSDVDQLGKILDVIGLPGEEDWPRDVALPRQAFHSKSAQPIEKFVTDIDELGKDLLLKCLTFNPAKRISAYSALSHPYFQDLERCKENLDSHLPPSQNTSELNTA
T3 sequence (P30281 whole entry partner): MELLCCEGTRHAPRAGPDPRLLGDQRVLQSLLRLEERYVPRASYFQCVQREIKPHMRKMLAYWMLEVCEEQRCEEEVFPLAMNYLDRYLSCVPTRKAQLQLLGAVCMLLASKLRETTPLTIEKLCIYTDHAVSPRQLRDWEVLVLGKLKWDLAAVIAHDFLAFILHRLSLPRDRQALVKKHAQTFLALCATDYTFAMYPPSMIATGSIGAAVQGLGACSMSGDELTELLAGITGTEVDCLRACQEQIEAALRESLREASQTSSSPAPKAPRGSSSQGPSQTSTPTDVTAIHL
Procedure: The CDK6 enzyme assay for IC50 determination was performed as follows. Microfluidic kinase detection technology (Caliper) was used to monitor the phosphorylation of peptide substrate by CDK6/CyclinD3. The total reaction volume is 15 μL containing buffer A (100 mM HEPES (pH 7.5), 0.1% BSA, 0.01% Triton X-100, 1 mM DTT, 10 mM MgCl2, 10 μM Sodium Orthovanadate, 10 μM Beta-Glycerophosphate), 300 μM ATP, 2 nM CDK6/CyclinD3 (Carna, 04-107), 1 μM FL-34 (5-FAM-[…]), and the test compound at appropriate dilutions in DMSO. All components were added to the 384-well plate (Corning, 4514), and incubated at Room Temperature for 3 hours. The reaction was terminated by addition of 15 μL Stop Buffer (180 mM HEPES (pH 7.5), 20 mM EDTA, Coating-3 reagent (PerkinElmer, 760050)). The plate was then loaded on Caliper EZ Reader (EZ Reader II, PerkinElmer, HD-4HYSG2772), and the reaction mixtures including substrate and product were sipped into the microfluidic chip for separation and detection. The IC50 values of the test compound were determined by fitting the inhibition curves by 4 parameter sigmoidal dose-response model using the Xlfit5/GraphPad Prism 5 software.

[2] = Homo sapiens, T47D, read-out: Phospho T47D Ser807 IC50, pRb Ser807 phosphorylation, T47D cells

Row | Compound | IC50 [1, 2] [nM] | IC50 (CDK4/CyclinD1; CDK4/CyclinD1, 200 μM ATP) [nM] | IC50 (CDK2/CyclinE1; CDK2/CyclinE1, 100 μM ATP) [nM] | IC50 (T47D breast cancer cells) [nM] | IC50 (CDK6/CyclinD3; CDK6/CyclinD3, 300 μM ATP) [nM] | IC50 (CDK4/CyclinD1; CDK4/CyclinD1) [nM] | IC50 (CDK2/CyclinE1; CDK2/CyclinE1) [nM] | IC50 (CDK6/CyclinD3; CDK6/CyclinD3) [nM] | IC50 ([1]; pRb Ser807 phosphorylation, T47D cells, read-out: Phospho T47D Ser807 IC50) [nM]
1 | CC(C)c1cnn2ccc(-c3ccnc(Nc4ccn(CC5CCN(C(=O)CO)CC5)n4)n3)cc12 [Synthetic Example 55] | 100 to 500 | 10 to 100 | > 1000 | 500 to 1000 |  |  |  |  | 
2 | Cc1nc(Nc2ncc(F)c(-c3ccn4ncc(C(C)C)c4c3)n2)ccc1C(=O)N1CCC(NC2CC2)CC1 [compound 11] |  | 10 to 100 | 100 to 1000 | 100 to 500 | 10 to 100 |  |  |  | 
3 | CC(C)c1cnn2ccc(-c3nc(Nc4ccc(CN5CCOCC5=O)cn4)ncc3F)cc12 [compound 15] |  | 10 to 100 | 100 to 1000 | 500 to 1000 | 100 to 1000 |  |  |  | 
4 | CC(C)c1cnn2ccc(-c3ccnc(Nc4ccn(CC5CCNCC5)n4)n3)cc12 [compound 32] | 100 to 500 | 10 to 100 | > 1000 | 100 to 500 |  |  |  |  | 
5 | CC(C)c1cnn2ccc(-c3ccnc(Nc4cnn(CC5CCNCC5)c4)n3)cc12 [compound 36] | 100 to 500 | 10 to 100 | 10 to 100 | 100 to 500 |  |  |  |  | 
6 | CC(C)c1cnn2c(C#N)cc(-c3ccnc(Nc4ccc(N5CCNCC5=O)cn4)n3)cc12 [compound 38] | 500 to 1000 | 10 to 100 | > 1000 | > 1000 |  |  |  |  | 
7 | CC(C)c1cnn2ccc(-c3ccnc(Nc4ccn(CC5CCN(C(=O)CC#N)CC5)n4)n3)cc12 [compound 56] | 100 to 500 | 10 to 100 | > 1000 |  |  |  |  |  | 
8 | COc1nc(-c2nc(Nc3ccc(N4CC5CCC(C4)O5)cn3)ncc2F)cc2c1nc(C)n2C(C)C [compound 65] | 100 to 500 |  |  |  |  | 10 to 100 | > 1000 |  | 
9 | COc1nc(-c2ccnc(Nc3ccc(N4CCOCC4)cn3)n2)cc2c1ncn2C(C)C [compound 66] | 100 to 500 |  |  | 100 to 500 |  | < 10 | > 1000 |  | 
10 | COc1nc(-c2ccnc(Nc3ccc(CN4CCC(C#N)C4)cn3)n2)cc2c1ncn2C(C)C (stereo not shown) [compound 67] | 100 to 500 |  |  |  |  | 10 to 100 | > 1000 |  | 
11 | COc1nc(-c2ccnc(Nc3ccc(CN4CCC(F)(F)C4)cn3)n2)cc2c1ncn2C(C)C [compound 69] | 100 to 500 |  |  | 100 to 500 |  | 10 to 100 | > 1000 |  | 
12 | COc1nc(-c2nc(Nc3ccc(N4CCOCC4=O)cn3)ncc2C)cc2c1nc(C)n2C(C)C [compound 75] |  |  |  | < 100 |  | < 10 | 100 to 1000 | 10 to 100 | 
13 | COc1nc(-c2ccnc(Nc3ccc(CN4CCC(F)C4)cn3)n2)cc2c1ncn2C(C)C (stereo not shown) [compound 76] | 100 to 500 |  |  |  |  | 10 to 100 | > 1000 |  | 
14 | COc1nc(-c2nc(Nc3ccc(N4CCC5(CC4)CC(=O)NC5=O)cn3)ncc2F)cc2c1nc(C)n2C(C)C [compound 79] | 100 to 500 |  |  |  |  | 10 to 100 | > 1000 |  | 
15 | COc1nc(-c2ccnc(Nc3ccc(CN4CCOCC4)cn3)n2)cc2c1ncn2C(C)C [compound 81] | 100 to 500 |  |  | 100 to 500 |  | 10 to 100 | > 1000 |  | 
16 | COc1nc(-c2nc(Nc3ccc(N4CCCC4=O)cn3)ncc2F)cc2c1nc(C)n2C(C)C [compound 82] | 100 to 500 |  |  | 100 to 500 |  | 10 to 100 | 100 to 1000 |  | 
17 | COc1nc(-c2nc(Nc3ccc(C(=O)N4CCC(NC5CC5)CC4)c(C)n3)ncc2F)cc2c1nc(C)n2C(C)C [compound 86] |  |  |  | 100 to 500 |  | 10 to 100 | > 1000 | 10 to 100 | 

Row | Compound | IC50 [1, 2] [nM] | IC50 (CDK4/CyclinD1; CDK4/CyclinD1, 200 μM ATP) [nM] | IC50 (CDK2/CyclinE1; CDK2/CyclinE1, 100 μM ATP) [nM] | IC50 (T47D breast cancer cells) [nM] | IC50 (CDK6/CyclinD3; CDK6/CyclinD3, 300 μM ATP) [nM] | IC50 (CDK4/CyclinD1; CDK4/CyclinD1) [nM] | IC50 (CDK2/CyclinE1; CDK2/CyclinE1) [nM] | IC50 (CDK6/CyclinD3; CDK6/CyclinD3) [nM] | IC50 ([1]; pRb Ser807 phosphorylation, T47D cells, read-out: Phospho T47D Ser807 IC50) [nM]
18 | COc1nc(-c2ccnc(Nc3ccc(N4CCOC(C)(C)C4)cn3)n2)cc2c1ncn2C(C)C [compound 88] | 100 to 500 |  |  | 100 to 500 |  | 10 to 100 | > 1000 |  | 
19 | COc1nc(-c2ccnc(Nc3ccc(N4CCOC(C)C4)cn3)n2)cc2c1ncn2C(C)C (stereo not shown) [compound 96] | 100 to 500 |  |  | 100 to 500 |  | 10 to 100 | > 1000 |  | 
20 | COc1nc(-c2ccnc(Nc3ccc(N4CC5CC4CO5)cn3)n2)cc2c1ncn2C(C)C (stereo not shown) [compound 104] | 100 to 500 |  |  | 100 to 500 |  | 10 to 100 | > 1000 |  | 
21 | COc1nc(-c2nc(Nc3ccc(N4CCNCC4=O)cn3)ncc2F)cc2c1nc(C)n2C(C)C [compound 107] |  | < 10 | > 1000 | 100 to 500 | 10 to 100 |  |  |  | 
22 | COc1nc(-c2nc(Nc3ccc(N4CCN(CC(F)(F)F)CC4=O)cn3)ncc2F)cc2c1nc(C)n2C(C)C [compound 124] |  | < 10 | > 1000 | 100 to 500 | 10 to 100 |  |  |  | 
23 | COc1nc(-c2nc(Nc3ccc(N4CCN(CCF)CC4)cn3)ncc2F)cc2c1ncn2C(C)C [compound 125] | 100 to 500 | 10 to 100 | > 1000 |  |  |  |  |  | 
24 | COc1nc(-c2ccnc(Nc3ccc(N4CCN(C5COC5)CC4)cn3)n2)cc2c1ncn2C(C)C [compound 130] | 100 to 500 | < 10 | > 1000 | 100 to 500 |  |  |  |  | 
25 | COc1nc(-c2nc(Nc3ccc(N4CCN(C5COC5)CC4)cn3)ncc2F)cc2c1ncn2C(C)C [compound 133] | 100 to 500 | 10 to 100 | > 1000 |  |  |  |  |  | 
26 | CCNC1CCN(c2ccc(Nc3nccc(-c4ccn5ncc(C(C)C)c5c4)n3)nc2)C(=O)C1 (stereo not shown) [compound 209] | < 100 | < 10 | < 10 | < 100 |  |  |  |  | 
27 | CNC1CCCN(c2ccc(Nc3nccc(-c4ccn5ncc(C(C)C)c5c4)n3)cc2)C1=O (stereo not shown) [compound 215] |  | < 10 | < 10 | < 100 | < 10 |  |  |  | 
28 | CNC1CCCN(c2ccc(Nc3nccc(-c4ccn5nc(C)c(C(C)C)c5c4)n3)cc2)C1=O (stereo not shown) [compound 217] |  | < 10 | 10 to 100 | < 100 | < 10 |  |  |  | 
29 | CC(C)c1cnn2ccc(-c3ccnc(Nc4ccc(N5CCNCC5=O)cc4)n3)cc12 [compound 226] |  | < 10 | < 10 | < 100 | < 10 |  |  |  | 
30 | CC(C)c1cnn2ccc(-c3ccnc(Nc4ccc(N5CCNCC5=O)nc4)n3)cc12 [compound 227] | < 100 | < 10 | < 10 | < 100 |  |  |  |  | 
31 | CC(C)n1cnc2c1CN(c1ccnc(Nc3ccc(N4CCN(S(C)(=O)=O)CC4=O)cn3)n1)CC2 [compound 240] | > 1000 | 10 to 100 | 10 to 100 | > 1000 |  |  |  |  | 
32 | CC(C)n1cnc2c(F)nc(-c3ccnc(Nc4ccc(N5CCN(C)CC5)cn4)n3)cc21 [compound 290] | < 100 | < 10 | 100 to 1000 |  |  |  |  |  | 
33 | N-[5-[4-(dimethylamino)-1-piperidyl]-2-pyridyl]-4-(3-isopropylpyrazolo[1,5-a]pyridin-5-yl)pyrimidin-2-amine [Synthetic Example 161] |  |  |  |  |  |  |  |  | < 100
